Measured values published in US11208407B2, “Substituted phenyl compounds as indoleamine 2,3-dioxygenase (IDO) inhibitors” (Merck Sharp & Dohme Corp., priority 2017, dated 2021).

Each molecule was assayed against IDO1 (Homo sapiens, UniProt P14902) (assay: IDO1 Cellular Assay in HeLa Cells Stimulated with IFNγ). Conditions: IFNγ 100 ng/mL, 300 uM L-tryptophan, about 48 hours, read-out: IDO HeLa Cell Assay, IC50.
Type: cell-based
Experimental: Biological Assays IDO1 Cellular Assay in HeLa Cells Stimulated with IFNγ
HeLa cells were cultured in complete HeLa culture medium (90% EMEM, 10% heat-inactivated fetal bovine serum) and expanded to about 1×10^9 cells. The cells were then collected and frozen down at 1×10^7 cells/vial in 1 mL frozen medium (90% complete HeLa culture medium, 10% DMSO).
Compounds to be tested were serially diluted in ten 3-fold steps in DMSO starting from 10 mM DMSO stocks in Echo low volume plate(s). Compound dilutions or DMSO alone were then dispensed from the dilution plate(s) into Greiner black 384-well assay plate(s) (catalog #781086, 50 nL/well) using an Echo 550 acoustic liquid handler (Labcyte).
Frozen HeLa cells were thawed and transferred into HeLa assay medium (99% complete HeLa culture medium, 1% Pen/Strep) with 20 mL medium/vial of cells. The cells were spun down at 250 g in a table top centrifuge for 5 min and suspended in same volume of HeLa assay medium. The cells were then counted and adjusted to a density of 2×10^5 cells/mL in HeLa assay medium. Sterile L-tryptophan were added to the cells with final concentration of 300 uM L-tryptophan. A small aliquot (2 mL/plate) of HeLa cells were set aside and were not treated with IFNγ, to serve as the Max-E control.
HeLa cells with and without IFNγ were dispensed to the respective wells of 384-well assay plates containing the compounds. The plates were incubated for about 48 hours at a 37° C., 5% CO2 incubator. Afterwards, 12 μL of 0.5 M methyl isonipecotate in dimethyl sulfoxide were added into each well and the plates were sealed and incubated at 37° C. without CO2 overnight. The plates were centrifuged for 1 min at 200×g. The resulting fluorescence was measured in a Spectramax plate reader (Molecular Devices) with a 400 nm excitation filter and a 510 nm emission filter.
The fluorescence intensity of each well was corrected for the background observed in wells with non-IFNγ-treated cells and was expressed as a fraction of the intensity observed in wells of IFNγ-treated cells and DMSO only. Potencies were calculated by linear least squares fit to the four parameter logistic IC50 equation.

IDO1, sequence (P14902 whole entry): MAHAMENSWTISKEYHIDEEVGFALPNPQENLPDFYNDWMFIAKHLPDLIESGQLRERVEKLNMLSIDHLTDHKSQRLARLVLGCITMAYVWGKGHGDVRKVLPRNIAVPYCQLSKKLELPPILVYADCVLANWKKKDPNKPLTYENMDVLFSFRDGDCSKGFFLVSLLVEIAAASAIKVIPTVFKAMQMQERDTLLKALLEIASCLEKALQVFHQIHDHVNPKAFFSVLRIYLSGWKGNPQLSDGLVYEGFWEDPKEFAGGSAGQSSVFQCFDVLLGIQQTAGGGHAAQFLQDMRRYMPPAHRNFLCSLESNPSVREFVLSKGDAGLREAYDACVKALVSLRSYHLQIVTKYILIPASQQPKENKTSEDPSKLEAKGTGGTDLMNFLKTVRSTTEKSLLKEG

Q: How did the IC50 turn out when `N#Cc1cnc2nc(C3(c4ccc(NC(=O)c5cccc(Cl)c5)cc4)CCC3)[nH]c2c1` [Example 2, 3-Chloro-N-(4-(1-(6-cyano-1H-imidazo[4,5-b]pyridin-2-yl)cyclobutyl)phenyl)benzamide] was run?
A: Its IC50 is 1.97 nM.

Q: With `O=C(Nc1ccc(C2(c3nc4ccccc4[nH]3)CCC2)cc1)c1cccc(Cl)c1` [Example 4, N-(4-(1-(1H-benzo[d]imidazol-2-yl)cyclobutyl)phenyl)-3-chlorobenzamide] as the molecule, how does the IC50 read?
A: Its IC50 is 3.01 nM.

Q: For `N#Cc1cccc(C(=O)Nc2ccc(C3(c4nc5cc(C(F)(F)F)cnc5[nH]4)CCC3)cc2)c1` [Example 6, 3-Cyano-N-(4-(1-(6-(trifluoromethyl)-3H-imidazo[4,5-b]pyridin-2-yl)cyclobutyl)phenyl)benzamide], which IC50 is on record?
A: The IC50 was 3.18 nM.

Q: Which IC50 does the source give for `O=C(Nc1ccc(C2(c3nc4cc(Br)cnc4[nH]3)CCC2)cc1Cl)c1cccc(Br)c1` [Example 12, 3-Bromo-N-(4-(1-(6-bromo-3H-imidazo[4,5-b]pyridin-2-yl)cyclobutyl)-2-chlorophenyl)benzamide] here?
A: The IC50 was 1.73 nM.

Q: Which IC50 does the source give for `N#Cc1cccc(C(=O)Nc2ccc(C3(c4nc5cc(C#N)cnc5[nH]4)CCC3)cc2Cl)c1` [Example 13, N-(2-chloro-4-(1-(6-cyano-3H-imidazo[4,5-b]pyridin-2-yl)cyclobutyl)phenyl)-3-cyanobenzamide] here?
A: Its IC50 is 7.18 nM.

Q: For `N#Cc1cccc(C(=O)Nc2ccc(C3(c4nc5cc(C#N)cnc5[nH]4)CCC3)cc2C#N)c1` [Example 14, 3-cyano-N-(2-cyano-4-(1-(6-cyano-3H-imidazo[4,5-b]pyridin-2-yl)cyclobutyl)phenyl)benzamide], which IC50 is on record?
A: The IC50 was 140 nM.

Q: With `Cc1cc(C2(c3nc4cc(C#N)cnc4[nH]3)CCC2)ccc1NC(=O)c1cccc(C#N)c1` [Example 15, 3-Cyano-N-(4-(1-(6-cyano-3H-imidazo[4,5-b]pyridin-2-yl)cyclobutyl)-2-methylphenyl)benzamide] as the molecule, how does the IC50 read?
A: Its IC50 is 15.9 nM.

Q: For `C=Cc1cc(C2(c3nc4cc(C#N)cnc4[nH]3)CCC2)ccc1Nc1ccn(C)n1` [Example 20, 2-(1-(4-((1-Methyl-1H-pyrazol-3-yl)amino)-3-vinylphenyl)cyclobutyl)-3H-imidazo[4,5-b]pyridine-6-carbonitrile], which IC50 is on record?
A: Its IC50 is 176 nM.

Q: For `Cn1ccc(Nc2ccc(C3(c4nc5cc(C#N)cnc5[nH]4)CCC3)cc2CO)n1` [Example 21, 2-(1-(3-(Hydroxymethyl)-4-((1-methyl-1H-pyrazol-3-yl)amino)phenyl)cyclobutyl)-3H-imidazo[4,5-b]pyridine-6-carbonitrile], which IC50 is on record?
A: The IC50 was 819 nM.

Q: `N#Cc1cnc2[nH]c(C3(c4ccc(NC(=O)OC5CC5)cc4)CCC3)nc2c1` [Example 22, Cyclopropyl (4-(1-(6-cyano-3H-imidazo[4,5-b]pyridin-2-yl)cyclobutyl)phenyl)carbamate] was tested. Which IC50 did it give?
A: The IC50 was 41.8 nM.

Q: For `N#Cc1cccc(C(=O)Nc2ccc(C3(c4nc5ccc(Cl)cc5[nH]4)CC(O)C3)cc2)c1` (centres unmarked) [Example 23, N-(4-(1-(6-chloro-1H-benzo[d]imidazol-2-yl)-3-hydroxycyclobutyl)phenyl)-3-cyanobenzamide], which IC50 is on record?
A: The IC50 was 43.4 nM.

Q: For `N#Cc1cnc2nc(C3(c4ccc(C(=O)NC5CCCCC5)cc4)CC(F)(F)C3)[nH]c2c1` [Example 28, 4-(1-(6-Cyano-1H-imidazo[4,5-b]pyridin-2-yl)-3,3-difluorocyclobutyl)-N-cyclohexylbenzamide], which IC50 is on record?
A: The IC50 was 890 nM.

Q: Which IC50 does the source give for `Cc1cccc(NC(=O)c2ccc(C3(c4nc5ncc(C#N)cc5[nH]4)CC(F)(F)C3)cc2)n1` [Example 29, 4-(1-(6-Cyano-1H-imidazo[4,5-b]pyridin-2-yl)-3,3-difluorocyclobutyl)-N-(6-methylpyridin-2-yl)benzamide] here?
A: The IC50 was 590 nM.

Q: With `N#Cc1cccc(NC(=O)c2ccc(C3(c4nc5ncc(C(F)(F)F)cc5[nH]4)CCC3)cc2)c1` [Example 30, N-(3-cyanophenyl)-4-{1-[6-(trifluoromethyl)-1H-imidazo[4,5-b]pyridin-2-yl]cyclobutyl}benzamide] as the molecule, how does the IC50 read?
A: Its IC50 is 5.09 nM.

Q: Which IC50 does the source give for `O=C(Nc1cccc(F)c1)c1ccc(C2(c3nc4ncc(C(F)(F)F)cc4[nH]3)CCC2)cc1` [Example 31, N-(3-fluorophenyl)-4-{1-[6-(trifluoromethyl)-1H-imidazo[4,5-b]pyridin-2-yl]cyclobutyl}benzamide] here?
A: Its IC50 is 2.09 nM.

Q: With `O=C(Nc1ccc(F)cc1F)c1ccc(C2(c3nc4ncc(C(F)(F)F)cc4[nH]3)CCC2)cc1` [Example 32, N-(2,4-difluorophenyl)-4-{1-[6-(trifluoromethyl)-1H-imidazo[4,5-b]pyridin-2-yl]cyclobutyl}benzamide] as the molecule, how does the IC50 read?
A: Its IC50 is 2.65 nM.

Q: Which IC50 does the source give for `O=C(Nc1cncc(Cl)c1)c1ccc(C2(c3nc4ncc(C(F)(F)F)cc4[nH]3)CCC2)cc1` [Example 33, N-(5-chloropyridin-3-yl)-4-{1-[6-(trifluoromethyl)-1H-imidazo[4,5-b]pyridin-2-yl]cyclobutyl}benzamide] here?
A: Its IC50 is 9.94 nM.

Q: How did the IC50 turn out when `O=C(NC1CCCCC1)c1ccc(C2(c3nc4ncc(C(F)(F)F)cc4[nH]3)CCC2)cc1` [Example 34, N-cyclohexyl-4-{1-[6-(trifluoromethyl)-1H-imidazo[4,5-b]pyridin-2-yl]cyclobutyl}benzamide] was run?
A: Its IC50 is 152 nM.

Q: Which IC50 does the source give for `CC(C)CNC(=O)c1ccc(C2(c3nc4ncc(C(F)(F)F)cc4[nH]3)CCC2)cc1` [Example 35, N-(2-methylpropyl)-4-{1-[6-(trifluoromethyl)-1H-imidazo[4,5-b]pyridin-2-yl]cyclobutyl}benzamide] here?
A: Its IC50 is 39.6 nM.

Q: How did the IC50 turn out when `N#Cc1ccc(F)c(NC(=O)c2ccc(C3(c4nc5ncc(C(F)(F)F)cc5[nH]4)CCC3)cc2)c1` [Example 36, N-(5-cyano-2-fluorophenyl)-4-{1-[6-(trifluoromethyl)-1H-imidazo[4,5-b]pyridin-2-yl]cyclobutyl}benzamide] was run?
A: The IC50 was 7.69 nM.

Q: Which IC50 does the source give for `O=C(Nc1cc(Cl)ccc1F)c1ccc(C2(c3nc4ncc(C(F)(F)F)cc4[nH]3)CCC2)cc1` [Example 37, N-(5-chloro-2-fluorophenyl)-4-{1-[6-(trifluoromethyl)-1H-imidazo[4,5-b]pyridin-2-yl]cyclobutyl}benzamide] here?
A: The IC50 was 2.03 nM.

Q: With `N#Cc1cccc(NC(=O)c2ccc(C3(c4nc5ncc(C#N)cc5[nH]4)CC(F)(F)C3)cc2)c1` [Example 38, 4-[1-(6-cyano-1H-imidazo[4,5-b]pyridin-2-yl)-3,3-difluorocyclobutyl]-N-(3-cyanophenyl)benzamide] as the molecule, how does the IC50 read?
A: The IC50 was 5.09 nM.

Q: How did the IC50 turn out when `COc1cc(C(F)(F)F)ncc1-c1ccc(C2(c3nc4cc(C(F)(F)F)cnc4[nH]3)COC2)cc1` [Example 41, 2-(3-{4-[4-methoxy-6-(trifluoromethyl)pyridin-3-yl]phenyl}oxetan-3-yl)-6-(trifluoromethyl)-3H-imidazo[4,5-b]pyridine] was run?
A: The IC50 was 7.64 nM.
